According to patent US20250049741A1, “COMPOSITION FOR PREVENTING OR TREATING ALZHEIMER'S DISEASE COMPRISING PHOSPHOLIPASE C ACTIVATOR AS AN ACTIVE INGREDIENT” (Korea University Research and Business Foundation, priority 2021, published 2025):

Tested on: 5XFAD mice
Assay: Contextual fear conditioning (CFC), freezing response
Format: in vivo
Settings: m-3M3FBS-injected 5XFAD mice
Description: To test the acute effect of AβO on hippocampal S-eCB mobilization, hippocampal slices from Sprague-Dawley rats (SD, 2 to 3 weeks old, […] Biolink, Co., Ltd., Korea) were used. Male and female rats were used in all in vitro experiments. To test the chronic effect of AβO on hippocampus-dependent memory impairments caused by amyloidosis, the 5XFAD mouse model (6 to 7 months old, #34840-JAX, Jackson Laboratory, USA), which is a mouse model of Alzheimer's disease that mimics AβO depositions, was used. C57BL/6 mice (6 to 7 months old, KOATECH, Korea) were used as wild type (WT) control mice for 5XFAD mice. Male 5XFAD and C57BL/6 mice were used for all in vivo behavioral experiments. […] A ceiling-mounted video camera recorded the behavior activity, and fed the corresponding video into a customized computer software (MATLAB, USA). […] Behavioral mobility data collected during the contextual conditioning experiments were automatically detected using the gray scaling method of EthoVision XT (Noldus, USA). […] Since a body-freezing response (freezing) is considered a conditioned response to CFC during the memory session, the body-freezing response was detected when the threshold was below the 2.0% threshold of mobility. That is, this means that there could be no more than a 2.0% change in the pixels of a detected mouse between the current sample and the previous sample. […]

SMILES: Cc1cc(C)c(S(=O)(=O)Nc2cccc(C(F)(F)F)c2)c(C)c1 [m-3M3FBS]
- freezing responses during memory recall compared to DMSO-injected 5XFAD mice: remarkably increased
